Assay results from PMC12396409, “Screening and hit evaluation of a microbial metabolite library against the pathogenic Plasmodium falciparum and Toxoplasma gondii parasites” (International Journal for Parasitology: Drugs and Drug …, 2025).
Where two headings read alike, the source gives them in different places.

How the values were obtained:
[1] = system: T. gondii RH strain (RH-Tub-eYFP) tachyzoites; test: microbe, parasite or virus in culture; assay type: cell-based, Toxoplasma gondii; conditions: 72 h; for percent parasite growth at 2 µg/mL: Toxoplasma gondii
[2] = system: P. falciparum 3D7 parasites; test: P. falciparum growth inhibition assay, 2-cycle (120 h treatment), delayed-death screen and dose-response; assay type: cell-based, Plasmodium falciparum; conditions: for activity at 2 µg/mL: Plasmodium falciparum, 3D7, 120 h
[3] = system: P. falciparum 3D7 parasites; test: P. falciparum growth inhibition assay, 1-cycle (72 h treatment), SYBR DNA staining (library screen at 2 μg/mL and dose-response); assay type: cell-based, Plasmodium falciparum; conditions: for activity at 2 µg/mL: Plasmodium falciparum, 3D7, 72 h
[4] = T. gondii, screen at 2 μg/mL, replicate 1
[5] = T. gondii, screen at 2 μg/mL, replicate 2
[6] = P. falciparum, 120 h, screen at 2 μg/mL, replicate 1
[7] = P. falciparum, 120 h, screen at 2 μg/mL, replicate 2
[8] = P. falciparum, 72 h, screen at 2 μg/mL, replicate 1
[9] = P. falciparum, 72 h, screen at 2 μg/mL, replicate 2
[10] = T. gondii, parasite screen at 2 μg/mL, % growth, replicate 1
[11] = T. gondii, parasite screen at 2 μg/mL, % growth, replicate 2
[12] = P. falciparum 3D7, 120 h, parasite screen at 2 μg/mL, % growth, replicate 1
[13] = P. falciparum 3D7, 120 h, parasite screen at 2 μg/mL, % growth, replicate 2
[14] = P. falciparum 3D7, 72 h, parasite screen at 2 μg/mL, % growth, replicate 1
[15] = P. falciparum 3D7, 72 h, parasite screen at 2 μg/mL, % growth, replicate 2
[16] = library screen at 2 μg/mL, % growth, replicate 1
[17] = library screen at 2 μg/mL, % growth, replicate 2
[18] = library screen at 2 μg/mL, 120 h, % growth, replicate 1
[19] = library screen at 2 μg/mL, 120 h, % growth, replicate 2
[20] = library screen at 2 μg/mL, 72 h, % growth, replicate 1
[21] = library screen at 2 μg/mL, 72 h, % growth, replicate 2

CN[C@H]1C(=O)N[C@@H]2Cc3ccc(cc3)Oc3cc4cc(c3O[C@@H]3O[C@H](C(=O)O)[C@@H](O)[C@H](O)[C@H]3NC(=O)CCCCCCCCC(C)C)Oc3ccc(cc3Cl)[C@@H](O)[C@@H]3NC(=O)[C@H](NC(=O)[C@@H]4NC(=O)[C@@H](NC2=O)c2cc(cc(O)c2Cl)Oc2cc1ccc2O)c1ccc(O)c(c1)-c1c(O[C@H]2O[C@H](CO)[C@@H](O)[C@H](O)[C@@H]2O)cc(O)cc1[C@@H](C(=O)NCCCN(C)C)NC3=O [Dalbavancin]
Tg_72h_%Growth_Rep1 [1, 4]: 148.88% | Tg_72h_%Growth_Rep2 [1, 5]: 101.28% | Pf_120h_%Growth_Rep1 [2, 6]: 61.95% | Pf_120h_%Growth_Rep2 [2, 7]: 91.53% | Pf_72h_%Growth_Rep1 [3, 8]: 84.83% | Pf_72h_%Growth_Rep2 [3, 9]: 84.70%

COc1c(C)c2c(c(O)c1C/C=C(\C)CCC(=O)O)C(=O)OC2 [BIA-M1207]
Tg_72h_%Growth_Rep1 [1, 10]: 1.75% | Tg_72h_%Growth_Rep2 [1, 11]: 2.10% | Pf_120h_%Growth_Rep1 [2, 12]: 16.21% | Pf_120h_%Growth_Rep2 [2, 13]: 22.24% | Pf_72h_%Growth_Rep1 [3, 14]: 27.32% | Pf_72h_%Growth_Rep2 [3, 15]: 1.32%

C[C@H]1O[C@@H]2CC(=O)O[C@@H]2C2=C1C(=O)c1c(O)cc3c(c1C2=O)[C@H]1C[C@@H](N(C)C)[C@H](O)[C@]3(C)O1 [Sch 38519]
Tg_72h_%Growth_Rep1 ([1]; T. gondii, parasite screen 2 μg/mL, % growth, replicate 1): 50.53% | Tg_72h_%Growth_Rep2 ([1]; T. gondii, parasite screen 2 μg/mL, % growth, replicate 2): 29.49% | Pf_120h_%Growth_Rep1 ([2]; P. falciparum, 120 h, parasite screen 2 μg/mL, % growth, replicate 1): 51.02% | Pf_120h_%Growth_Rep2 ([2]; P. falciparum, 120 h, parasite screen 2 μg/mL, % growth, replicate 2): 51.53% | Pf_72h_%Growth_Rep1 ([3]; P. falciparum, 72 h, parasite screen 2 μg/mL, % growth, replicate 1): 54.64% | Pf_72h_%Growth_Rep2 ([3]; P. falciparum, 72 h, parasite screen 2 μg/mL, % growth, replicate 2): 23.72%

COC(=O)[C@@]12C(=O)C(C)C(=O)[C@]1(C)C(C)=C[C@H]1[C@]3(C=O)CC[C@H](OC(C)=O)C(C)(C)[C@H]3CC[C@@]12C (stereo partly shown) [Andrastin A]
Tg_72h_%Growth_Rep1 [1, 16]: 90.21% | Tg_72h_%Growth_Rep2 [1, 17]: 88.06% | Pf_120h_%Growth_Rep1 [2, 18]: 133.36% | Pf_120h_%Growth_Rep2 [2, 19]: 82.36% | Pf_72h_%Growth_Rep1 [3, 20]: 79.79% | Pf_72h_%Growth_Rep2 [3, 21]: 84.23%

CC(C)=CCCC(C)C1CCC2(C)CC3C(C(=O)CC3(C)O)C(C=O)=CCC12 (stereo not shown) [BIA-O1199]
Tg_72h_%Growth_Rep1 [1, 10]: 7.63% | Tg_72h_%Growth_Rep2 [1, 11]: 89.80% | Pf_120h_%Growth_Rep1 [2, 12]: 3.94% | Pf_120h_%Growth_Rep2 [2, 13]: 138.56% | Pf_72h_%Growth_Rep1 [3, 14]: -0.50% | Pf_72h_%Growth_Rep2 [3, 15]: -3.29%

CN(C)[C@@H]1C(O)=C(C(N)=O)C(=O)[C@@]2(O)C(O)=C3C(=O)c4c(O)ccc(Cl)c4[C@@H](O)[C@H]3C[C@@H]12 [Demeclocycline]
percent parasite growth at 2 µg/mL ([1]; T. gondii, screen at 2 μg/mL, replicate 1, read-out: Tg_72h_%Growth_Rep1): 157% | percent parasite growth at 2 µg/mL ([1]; T. gondii, screen at 2 μg/mL, replicate 2, read-out: Tg_72h_%Growth_Rep2): 107% | activity at 2 µg/mL ([2]; P. falciparum, 120 h, screen at 2 μg/mL, replicate 1, read-out: Pf_120h_%Growth_Rep1): 101% | activity at 2 µg/mL ([2]; P. falciparum, 120 h, screen at 2 μg/mL, replicate 2, read-out: Pf_120h_%Growth_Rep2): 94.8% | activity at 2 µg/mL ([3]; P. falciparum, 72 h, screen at 2 μg/mL, replicate 1, read-out: Pf_72h_%Growth_Rep1): 85.8% | activity at 2 µg/mL ([3]; P. falciparum, 72 h, screen at 2 μg/mL, replicate 2, read-out: Pf_72h_%Growth_Rep2): 87%

Cc1cc(=O)c(O)cc2c1C[C@@H]1CC(C)(C)/C=C/C[C@@]3(C)Oc4cc(O)c(=O)cc(C)c4C[C@@H]3C[C@@H](O)[C@]1(C)O2 [Eupenifeldin]
Tg_72h_%Growth_Rep1 [1, 16]: 1.55% | Tg_72h_%Growth_Rep2 [1, 17]: 1.71% | 2) Growth (%) at 120 h ([2]; P. falciparum, 2 μg/mL, 120 h): 14.46% | 3) Fold change (72 h/120 h) ([2]; P. falciparum, growth at 72 h / growth at 120 h, 2 μg/mL): 2.0 | Pf_120h_%Growth_Rep1 [2, 18]: 3.95% | Pf_120h_%Growth_Rep2 [2, 19]: 24.96% | 1) Growth (%) at 72 h ([3]; P. falciparum, 2 μg/mL, 72 h): 28.81% | Mean ([3]; P. falciparum, 72 h, 2 μg/mL, mean of both replicates, growth (% of control)): 28.81 | Pf_72h_%Growth_Rep1 [3, 20]: 0.51% | Pf_72h_%Growth_Rep2 [3, 21]: 57.11%

C=Cc1cc(OC)c2c(c1)c(=O)oc1c2cc(OC)c2c(O)ccc([C@H]3O[C@H](C)[C@@H](O)[C@@H](N(C)C)[C@@H]3O)c21 [Deacetylravidomycin]
Tg_72h_%Growth_Rep1 [1, 4]: 3.62% | Tg_72h_%Growth_Rep2 [1, 5]: 4.01% | Pf_120h_%Growth_Rep1 [2, 6]: 1.87% | Pf_120h_%Growth_Rep2 [2, 7]: 7.89% | Pf_72h_%Growth_Rep1 [3, 8]: 3.21% | Pf_72h_%Growth_Rep2 [3, 9]: 5.95%
